The values that follow come from patent US7332506B2, “Substituted-3-indolyl-4-piperidino-alkyl heterocycles for the treatment of depression” (Wyeth, priority 2002, dated 2008).

For one data set, the target named is T1, Human 5-HT Transporter (Homo sapiens, UniProt P31645).
T1 construct: endogenous in cells; host or cells: Jar cells (human carcinoma), treated with staurosporine
The data set is described as follows: Inhibition of 3H-5-HT Uptake by cells Possessing the Human 5-HT Transporter (HC 5HT Transporter). As to conditions: Jar cells, 3H-5-HT uptake; read-out: HC 5HT Transporter IC50. The format is cell-based. How it is done:
[Staurosporine greatly increases the expression of the 5-HT-transporter.] On the day of assay, vehicle, excess of fluoxetine, or test compound is added to various wells on the plate. All wells then receive ^3H-5-HT and are incubated at 37° C. for 5 min. The wells are then washed with ice cold 50 mM Tris HCl (pH 7.4) buffer and aspirated to remove free ^3H-5-HT. 25 μl of 0.25 M NaOH is then added to each well to lyse the cells and 75 μl scintillation cocktail (Microscint™ 20) added prior to quantitation on a Packard TopCount machine. Tubes with vehicle represent total possible uptake, radioactivity counted in tubes with fluoxetine represent nonspecific binding/uptake and is subtracted from the total possible uptake to give total possible specific uptake. This nonspecific binding (usual low in number) is then subtracted from the counts obtained in wells with various test compounds (or different concentrations of test drug) to give specific uptake in the presence of drug. Specific uptake is then expressed as a % of control values and is analyzed using nonlinear regression analysis (Prizm) to determine IC50 values. If the compound is active at inhibiting 5-HT uptake, its counts will be close to that obtained with fluoxetine.

The target in another data set is T2, human 5-HT1A receptors (Homo sapiens, UniProt P08908).
T2 construct: expressed in transfected cells; host or cells: CHO cells
T2 sequence (P08908 1-422): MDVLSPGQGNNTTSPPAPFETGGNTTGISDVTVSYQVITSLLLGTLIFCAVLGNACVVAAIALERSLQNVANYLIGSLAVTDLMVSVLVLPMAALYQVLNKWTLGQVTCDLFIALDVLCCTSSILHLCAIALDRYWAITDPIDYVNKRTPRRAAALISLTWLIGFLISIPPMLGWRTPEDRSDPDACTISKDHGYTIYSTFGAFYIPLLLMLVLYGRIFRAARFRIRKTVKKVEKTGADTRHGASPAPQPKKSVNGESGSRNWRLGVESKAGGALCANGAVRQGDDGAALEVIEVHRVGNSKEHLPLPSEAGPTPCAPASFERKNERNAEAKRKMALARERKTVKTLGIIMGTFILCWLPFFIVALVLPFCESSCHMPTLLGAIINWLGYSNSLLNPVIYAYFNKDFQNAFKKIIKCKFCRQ
Kind of data set: [3H] 8-OH-DPAT displacement from the 5-HT1A serotonin receptor (CHO cells). The format is binding. An excerpt:
High affinity for the serotonin 5-HT1A receptor was established by testing the claimed compound's ability to displace [^3H] 8-OH-DPAT (dipropylaminotetralin) from the 5-HT1A serotonin receptor following a modification of the procedure of Hall et al., J. Neurochem. 44, 1685 (1985) which utilizes CHO cells stably transfected with human 5-HT1A receptors.

The target of another data set is T3, 5-HT transporter (Rattus norvegicus, UniProt P31652).
T3 construct: from tissue; host or cells: rat frontal cortex membranes (male Sprague-Dawley rats)
Kind of data set: Rat Brain 3H-Paroxetine Binding Assay (RB 5HT Transporter). As to the method: Rat Brain ^3H-Paroxetine Binding Assay (RB 5HT Transporter):
This assay was used to determine a compound's affinity of the 5-HT transporter.
A protocol similar to that used by Cheetham et. al. (Neuropharmacol. 1993, 32, 737) was used. Briefly, frontal cortical membranes prepared from male S.D. rats were incubated with ^3H-parxetine (0.1 nM) for 60 min. at 25° C. All tubes also contained either vehicle, test compound (one to eight concentrations), or a saturating concentration of fluoxetine (10 μM) to define […]. All reactions are terminated by the addition of ice cold Tris buffer followed by rapid filtration using a Tom Tech filtration device to separate bound from free ^3H-paroxetine. Bound radioactivity was quantitated using a Wallac 1205 Beta Plate® counter. Nonlinear regression analysis was used to determine IC50 values which were converted to Ki values using the method of Cheng and Prusoff (Biochem. Pharmacol. 1973, 22, 3099);

Each structure is given as a SMILES string.

T1 sequence (P31645 whole entry): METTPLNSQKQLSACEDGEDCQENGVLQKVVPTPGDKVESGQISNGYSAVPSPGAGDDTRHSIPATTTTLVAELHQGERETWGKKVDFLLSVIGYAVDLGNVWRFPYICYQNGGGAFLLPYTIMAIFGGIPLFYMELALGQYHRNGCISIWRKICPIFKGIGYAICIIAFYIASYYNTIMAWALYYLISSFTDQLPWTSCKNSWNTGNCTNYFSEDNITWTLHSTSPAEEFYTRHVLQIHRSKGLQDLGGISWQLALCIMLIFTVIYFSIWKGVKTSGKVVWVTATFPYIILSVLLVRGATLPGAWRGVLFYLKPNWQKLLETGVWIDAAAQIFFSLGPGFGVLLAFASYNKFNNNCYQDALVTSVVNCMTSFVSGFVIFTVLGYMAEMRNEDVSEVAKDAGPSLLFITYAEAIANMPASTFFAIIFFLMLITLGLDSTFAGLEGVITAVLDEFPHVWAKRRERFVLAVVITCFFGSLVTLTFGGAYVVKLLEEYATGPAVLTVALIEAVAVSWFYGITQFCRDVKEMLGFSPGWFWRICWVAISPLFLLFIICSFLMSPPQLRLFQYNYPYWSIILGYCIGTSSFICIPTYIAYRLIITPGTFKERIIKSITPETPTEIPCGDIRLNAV
T3 sequence (P31652 whole entry): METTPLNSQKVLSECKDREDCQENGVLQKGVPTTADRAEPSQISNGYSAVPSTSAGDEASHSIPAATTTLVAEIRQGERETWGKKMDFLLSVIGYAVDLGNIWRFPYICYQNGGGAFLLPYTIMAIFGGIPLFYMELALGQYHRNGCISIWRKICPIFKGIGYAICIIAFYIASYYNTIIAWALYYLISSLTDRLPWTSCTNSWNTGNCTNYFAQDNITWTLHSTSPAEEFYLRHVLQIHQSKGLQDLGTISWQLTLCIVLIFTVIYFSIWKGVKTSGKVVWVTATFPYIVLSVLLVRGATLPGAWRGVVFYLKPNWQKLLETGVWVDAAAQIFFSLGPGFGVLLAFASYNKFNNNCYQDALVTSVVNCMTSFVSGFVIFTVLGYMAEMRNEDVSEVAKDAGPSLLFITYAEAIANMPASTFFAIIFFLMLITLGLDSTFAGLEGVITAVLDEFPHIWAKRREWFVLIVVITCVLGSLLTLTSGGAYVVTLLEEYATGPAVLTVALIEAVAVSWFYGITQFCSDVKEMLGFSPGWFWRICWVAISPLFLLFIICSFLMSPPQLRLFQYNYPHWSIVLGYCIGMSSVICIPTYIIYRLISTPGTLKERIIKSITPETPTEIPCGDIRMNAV

By melting point is commonly meant the temperature, or range, at which the solid turns liquid. Broadly, the IC50 is the concentration needed to halve the response being measured. The Ki is a measure of affinity in units of concentration, obtained from inhibition or displacement. The molecule `COc1cc2ncn(CCN3CC=C(c4c[nH]c5ccccc45)CC3)c(=O)c2cc1OC` [Example 1, 3-[2-(4-(1H-indol-3-yl)-3,6-dihydro-1(2H)-pyridinyl)ethyl]-6-7-dimethoxy-4(3H)-quinazolinone] yielded a melting point of 219 °C. Further, the IC50 on Human 5-HT Transporter is 0.125 µM. The affinity on human 5-HT1A receptors corresponds to a Ki of 0.0838 µM. The same molecule returned a Ki at 5-HT transporter of 0.00287 µM.
Usually inhibition stands for the drop in the measured response relative to a control, in per cent. In the case of `O=c1c2cc(F)ccc2ncn1CCN1CC=C(c2c[nH]c3ccccc23)CC1` [Example 15, 6-fluoro-3-{2-[4-(1H-indol-3-yl)-3,6-dihydro-1(2H)-pyridinyl]ethyl}-4(3H)-quinazolinone], the melting point amounted to 138 °C. Moreover, the IC50 at Human 5-HT Transporter amounted to 0.159 µM. For the same molecule, the inhibition at 1 µM on human 5-HT1A receptors (@ 1000 nM, printed in the 5-HT1A Ki column) stood at 44%. This molecule registered an inhibition constant (Ki) on 5-HT transporter of 0.019 µM.
